# Data taken from publication PMC11062922 (Nature Chemical Biology, 2023).
# Like-named read-outs stand apart in the source and are kept apart here.
# Assays:
# BUB1 = molecular target: T1, BUB1 (Homo sapiens, UniProt O43683); experiment: Kinobeads two-dose competition binding: BUB1; details: read-out: Lestaurtinib Drugmatrix value, Gene Name BUB1
# T1 construct: endogenous in cells
# PRKAR2A = molecular target: T2, PRKAR2A (Homo sapiens, UniProt P13861); experiment: Kinobeads competition binding, Lestaurtinib control replicates: PRKAR2A; details: read-out: Lestaurtinib Drugmatrix value; Gene Name PRKAR2A; one column per experiment number and replicate (R1-R3)
# T2 construct: to maximize the representation of endogenous proteins; endogenous in cells
# ABL2 = molecular target: T3, ABL2 (Homo sapiens, UniProt P42684); experiment: Kinobeads two-dose competition binding: ABL2; details: read-out: Lestaurtinib Drugmatrix value, Gene Name ABL2
# T3 construct: endogenous in cells
# PIP4K2C = molecular target: T4, PIP4K2C (Homo sapiens, UniProt Q8TBX8); experiment: Kinobeads competition binding, Lestaurtinib control replicates: PIP4K2C; details: read-out: Lestaurtinib Drugmatrix value; Gene Name PIP4K2C; one column per experiment number and replicate (R1-R3)
# T4 construct: a mixture of lysates from five cancer cell lines; endogenous in cells
# T4 sequence (Q8TBX8 1-421): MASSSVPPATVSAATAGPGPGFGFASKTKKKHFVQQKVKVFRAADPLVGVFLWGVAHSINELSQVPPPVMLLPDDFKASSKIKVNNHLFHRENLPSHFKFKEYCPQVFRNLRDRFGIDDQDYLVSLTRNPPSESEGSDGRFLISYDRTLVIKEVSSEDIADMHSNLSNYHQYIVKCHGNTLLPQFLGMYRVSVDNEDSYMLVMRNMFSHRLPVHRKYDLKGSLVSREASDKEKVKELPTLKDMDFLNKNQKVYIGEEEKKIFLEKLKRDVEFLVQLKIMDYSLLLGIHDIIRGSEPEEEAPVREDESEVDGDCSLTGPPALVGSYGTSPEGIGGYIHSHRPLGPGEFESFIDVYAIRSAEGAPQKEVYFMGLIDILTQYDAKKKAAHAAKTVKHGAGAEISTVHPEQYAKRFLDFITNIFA
# EPHA4 = molecular target: T5, EPHA4 (Homo sapiens, UniProt P54764); experiment: Kinobeads two-dose competition binding: EPHA4; details: read-out: Lestaurtinib Drugmatrix value, Gene Name EPHA4
# T5 construct: endogenous in cells
# CK2alpha1 (CSNK2A1) = molecular target: T6, CK2alpha1 (CSNK2A1) (Homo sapiens, UniProt P68400); experiment: Recombinant kinase activity assay (ProQinase, FlashPlate radiometric): CK2alpha1; type: biochemical
# T6 construct: purchased ProQinase
# Procedure: Kinase activity assays were performed by ProQinase. Dose-dependent activity inhibition of CDK1/cyclinB, CK2alpha1 and CK2alpha2 were measured using a FlashPlateTM-based radiometric assay at KM (ATP) of the respective kinase.
# [1] = molecular target: T7, endogenous kinases and other proteins enriched by Kinobeads from mixed cancer cell lysates (Homo sapiens, UniProt Q6ZSR9); experiment: Kinobeads pulldown, full dose-response (eight doses); type: binding; details: target Q6ZSR9;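 further: competition with Kinobeads ε after inhibitor preincubation in lysate (5 mg/ml protein) for 45 min at 4 °C, DMSO control, doses 0.3–1,000 nM, label-free LC–MS/MS quantification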
# T7 construct: endogenous in cells
# [2] = molecular target: T8, endogenous kinases and other proteins enriched by Kinobeads from mixed cancer cell lysates (Homo sapiens, UniProt Q2M2I8); experiment: as above; type: binding; details: target AAK1
# T8 construct: to maximize the representation of endogenous proteins; endogenous in cells
# [3] = molecular target: T9, endogenous kinases and other proteins enriched by Kinobeads from mixed cancer cell lysates (Homo sapiens, UniProt Q9BZL6); experiment: as above; type: binding; details: target PRKD2
# T9 construct: endogenous in cells
# [4] = molecular target: T10, endogenous kinases and other proteins enriched by Kinobeads from mixed cancer cell lysates (Homo sapiens, UniProt Q9H0K1); experiment: as above; type: binding; details: target SIK2
# T10 construct: endogenous in cells
# [5] = molecular target: T11, endogenous kinases and other proteins enriched by Kinobeads from mixed cancer cell lysates (Homo sapiens, UniProt Q96PY6); experiment: as above; type: binding; details: target NEK1
# T11 construct: endogenous in cells
# [6] = molecular target: T12, endogenous kinases and other proteins enriched by Kinobeads from mixed cancer cell lysates (Homo sapiens, UniProt P35916); experiment: as above; type: binding; details: target FLT4
# T12 construct: endogenous in cells
# T12 sequence (P35916 25-1363): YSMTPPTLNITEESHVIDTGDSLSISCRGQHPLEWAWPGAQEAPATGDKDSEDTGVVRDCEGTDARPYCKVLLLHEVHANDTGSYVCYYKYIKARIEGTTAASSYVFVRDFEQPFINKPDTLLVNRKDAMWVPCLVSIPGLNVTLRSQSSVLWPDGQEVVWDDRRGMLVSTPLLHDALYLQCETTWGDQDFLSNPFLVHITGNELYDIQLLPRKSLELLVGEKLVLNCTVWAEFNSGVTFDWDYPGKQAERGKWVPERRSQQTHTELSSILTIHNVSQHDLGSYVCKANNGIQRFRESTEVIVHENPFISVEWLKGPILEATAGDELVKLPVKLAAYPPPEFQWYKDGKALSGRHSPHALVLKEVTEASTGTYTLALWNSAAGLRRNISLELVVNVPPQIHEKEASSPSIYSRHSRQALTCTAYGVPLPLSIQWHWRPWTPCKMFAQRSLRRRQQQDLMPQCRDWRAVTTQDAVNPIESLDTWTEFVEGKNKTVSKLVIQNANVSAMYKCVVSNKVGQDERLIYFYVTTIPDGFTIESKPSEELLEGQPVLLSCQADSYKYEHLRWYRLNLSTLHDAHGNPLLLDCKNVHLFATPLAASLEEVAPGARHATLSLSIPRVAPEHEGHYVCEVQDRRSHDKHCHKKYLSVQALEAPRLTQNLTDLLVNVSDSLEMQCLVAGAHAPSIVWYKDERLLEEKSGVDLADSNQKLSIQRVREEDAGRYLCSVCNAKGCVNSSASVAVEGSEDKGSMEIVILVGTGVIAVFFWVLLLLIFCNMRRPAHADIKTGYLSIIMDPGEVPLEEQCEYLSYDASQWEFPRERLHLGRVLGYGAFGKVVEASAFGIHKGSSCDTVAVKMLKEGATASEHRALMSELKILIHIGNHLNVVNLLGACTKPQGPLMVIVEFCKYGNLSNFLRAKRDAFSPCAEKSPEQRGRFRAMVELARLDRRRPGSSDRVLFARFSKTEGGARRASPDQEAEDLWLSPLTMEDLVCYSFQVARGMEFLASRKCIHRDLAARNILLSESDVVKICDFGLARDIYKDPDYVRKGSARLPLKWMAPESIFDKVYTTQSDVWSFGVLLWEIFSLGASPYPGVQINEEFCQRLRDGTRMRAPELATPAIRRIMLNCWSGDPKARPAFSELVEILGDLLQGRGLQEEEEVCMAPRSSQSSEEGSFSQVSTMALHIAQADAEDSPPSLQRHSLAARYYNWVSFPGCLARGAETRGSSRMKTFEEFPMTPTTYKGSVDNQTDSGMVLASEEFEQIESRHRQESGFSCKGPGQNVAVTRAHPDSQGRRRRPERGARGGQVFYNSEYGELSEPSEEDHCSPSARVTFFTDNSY
# [7] = molecular target: T13, endogenous kinases and other proteins enriched by Kinobeads from mixed cancer cell lysates (Homo sapiens, UniProt Q12851); experiment: as above; type: binding; details: target MAP4K2
# T13 construct: to maximize the representation of endogenous proteins; endogenous in cells
# T13 sequence (Q12851 whole entry): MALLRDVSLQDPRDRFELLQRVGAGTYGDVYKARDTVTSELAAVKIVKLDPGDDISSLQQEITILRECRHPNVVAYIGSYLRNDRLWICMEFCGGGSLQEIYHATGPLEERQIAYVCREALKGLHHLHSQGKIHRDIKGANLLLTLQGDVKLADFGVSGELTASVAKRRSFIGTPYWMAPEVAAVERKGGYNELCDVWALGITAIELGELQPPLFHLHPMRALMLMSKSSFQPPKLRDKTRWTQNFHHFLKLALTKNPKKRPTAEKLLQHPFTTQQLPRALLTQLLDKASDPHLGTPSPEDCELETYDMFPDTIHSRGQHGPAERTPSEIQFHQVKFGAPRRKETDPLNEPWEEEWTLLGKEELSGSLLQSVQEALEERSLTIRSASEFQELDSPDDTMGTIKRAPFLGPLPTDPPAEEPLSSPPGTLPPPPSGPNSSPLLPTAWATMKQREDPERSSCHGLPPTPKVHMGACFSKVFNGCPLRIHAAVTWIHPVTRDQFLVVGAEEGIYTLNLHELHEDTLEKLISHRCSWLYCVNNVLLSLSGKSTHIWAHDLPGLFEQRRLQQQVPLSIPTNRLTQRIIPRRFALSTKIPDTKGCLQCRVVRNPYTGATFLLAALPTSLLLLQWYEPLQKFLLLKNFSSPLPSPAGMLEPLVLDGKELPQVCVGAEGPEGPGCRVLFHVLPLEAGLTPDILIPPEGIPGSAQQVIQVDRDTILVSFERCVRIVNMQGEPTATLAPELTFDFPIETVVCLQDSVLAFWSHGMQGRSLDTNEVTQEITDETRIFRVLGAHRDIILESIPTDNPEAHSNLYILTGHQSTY
# [8] = molecular target: T14, endogenous kinases and other proteins enriched by Kinobeads from mixed cancer cell lysates (Homo sapiens, UniProt Q15375); experiment: as above; type: binding; details: target EPHA7
# T14 construct: endogenous in cells
# [9] = molecular target: T15, endogenous kinases and other proteins enriched by Kinobeads from mixed cancer cell lysates (Homo sapiens, UniProt O94806); experiment: as above; type: binding; details: target PRKD3
# T15 construct: endogenous in cells
# [10] = molecular target: T16, endogenous kinases and other proteins enriched by Kinobeads from mixed cancer cell lysates (Homo sapiens, UniProt Q96GD4); experiment: as above; type: binding; details: target AURKB
# T16 construct: endogenous in cells
# T16 sequence (Q96GD4 whole entry): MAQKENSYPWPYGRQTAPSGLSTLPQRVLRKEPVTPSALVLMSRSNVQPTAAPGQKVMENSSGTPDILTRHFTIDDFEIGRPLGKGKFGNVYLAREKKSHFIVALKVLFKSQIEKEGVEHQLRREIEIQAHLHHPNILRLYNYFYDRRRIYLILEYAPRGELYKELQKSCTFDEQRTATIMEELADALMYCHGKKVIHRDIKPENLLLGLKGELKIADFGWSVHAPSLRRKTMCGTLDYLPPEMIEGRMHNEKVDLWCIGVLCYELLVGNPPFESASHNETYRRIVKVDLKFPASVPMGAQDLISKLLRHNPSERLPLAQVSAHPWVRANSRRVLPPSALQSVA
# [11] = molecular target: T17, endogenous kinases and other proteins enriched by Kinobeads from mixed cancer cell lysates (Homo sapiens, UniProt Q7KZI7); experiment: as above; type: binding; details: target MARK2
# T17 construct: endogenous in cells
# T17 sequence (Q7KZI7 whole entry): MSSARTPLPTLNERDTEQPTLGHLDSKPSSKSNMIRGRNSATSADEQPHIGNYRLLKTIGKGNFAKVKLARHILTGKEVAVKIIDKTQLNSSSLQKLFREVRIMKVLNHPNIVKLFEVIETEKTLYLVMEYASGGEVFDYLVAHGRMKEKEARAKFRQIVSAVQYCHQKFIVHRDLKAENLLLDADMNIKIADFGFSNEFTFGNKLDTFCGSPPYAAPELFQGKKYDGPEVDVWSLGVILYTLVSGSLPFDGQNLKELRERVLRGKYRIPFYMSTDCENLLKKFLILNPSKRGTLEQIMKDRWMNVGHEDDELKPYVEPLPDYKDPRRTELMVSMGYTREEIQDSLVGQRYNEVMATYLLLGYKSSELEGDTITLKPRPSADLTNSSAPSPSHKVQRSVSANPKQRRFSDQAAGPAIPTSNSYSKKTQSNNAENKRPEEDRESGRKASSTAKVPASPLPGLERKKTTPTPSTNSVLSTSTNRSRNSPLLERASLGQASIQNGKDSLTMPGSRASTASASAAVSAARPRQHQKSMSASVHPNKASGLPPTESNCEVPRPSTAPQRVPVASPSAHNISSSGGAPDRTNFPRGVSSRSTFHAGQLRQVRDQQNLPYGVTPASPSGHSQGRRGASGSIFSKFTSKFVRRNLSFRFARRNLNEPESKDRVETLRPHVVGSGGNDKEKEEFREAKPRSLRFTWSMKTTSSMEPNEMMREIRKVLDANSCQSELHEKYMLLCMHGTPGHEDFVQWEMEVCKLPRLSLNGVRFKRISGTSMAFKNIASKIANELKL
# [12] = molecular target: T18, endogenous kinases and other proteins enriched by Kinobeads from mixed cancer cell lysates (Homo sapiens, UniProt O15530); experiment: as above; type: binding; details: target PDPK1;PDPK2P
# T18 construct: endogenous in cells
# [13] = molecular target: T19, endogenous kinases and other proteins enriched by Kinobeads from mixed cancer cell lysates (Homo sapiens, UniProt P37173); experiment: as above; type: binding; details: target TGFBR2; read-out: apparent Kd
# T19 construct: endogenous in cells
# [14] = molecular target: T20, endogenous kinases and other proteins enriched by Kinobeads from mixed cancer cell lysates (Homo sapiens, UniProt Q9NSY1); experiment: as above; type: binding; details: target BMP2K
# T20 construct: endogenous in cells
# [15] = molecular target: T21, endogenous kinases and other proteins enriched by Kinobeads from mixed cancer cell lysates (Homo sapiens, UniProt O94804); experiment: as above; type: binding; details: target STK10
# T21 construct: endogenous in cells
# [16] = molecular target: T22, endogenous kinases and other proteins enriched by Kinobeads from mixed cancer cell lysates (Homo sapiens, UniProt Q9H2G2); experiment: as above; type: binding; details: target SLK
# T22 construct: endogenous in cells
# T22 sequence (Q9H2G2 whole entry): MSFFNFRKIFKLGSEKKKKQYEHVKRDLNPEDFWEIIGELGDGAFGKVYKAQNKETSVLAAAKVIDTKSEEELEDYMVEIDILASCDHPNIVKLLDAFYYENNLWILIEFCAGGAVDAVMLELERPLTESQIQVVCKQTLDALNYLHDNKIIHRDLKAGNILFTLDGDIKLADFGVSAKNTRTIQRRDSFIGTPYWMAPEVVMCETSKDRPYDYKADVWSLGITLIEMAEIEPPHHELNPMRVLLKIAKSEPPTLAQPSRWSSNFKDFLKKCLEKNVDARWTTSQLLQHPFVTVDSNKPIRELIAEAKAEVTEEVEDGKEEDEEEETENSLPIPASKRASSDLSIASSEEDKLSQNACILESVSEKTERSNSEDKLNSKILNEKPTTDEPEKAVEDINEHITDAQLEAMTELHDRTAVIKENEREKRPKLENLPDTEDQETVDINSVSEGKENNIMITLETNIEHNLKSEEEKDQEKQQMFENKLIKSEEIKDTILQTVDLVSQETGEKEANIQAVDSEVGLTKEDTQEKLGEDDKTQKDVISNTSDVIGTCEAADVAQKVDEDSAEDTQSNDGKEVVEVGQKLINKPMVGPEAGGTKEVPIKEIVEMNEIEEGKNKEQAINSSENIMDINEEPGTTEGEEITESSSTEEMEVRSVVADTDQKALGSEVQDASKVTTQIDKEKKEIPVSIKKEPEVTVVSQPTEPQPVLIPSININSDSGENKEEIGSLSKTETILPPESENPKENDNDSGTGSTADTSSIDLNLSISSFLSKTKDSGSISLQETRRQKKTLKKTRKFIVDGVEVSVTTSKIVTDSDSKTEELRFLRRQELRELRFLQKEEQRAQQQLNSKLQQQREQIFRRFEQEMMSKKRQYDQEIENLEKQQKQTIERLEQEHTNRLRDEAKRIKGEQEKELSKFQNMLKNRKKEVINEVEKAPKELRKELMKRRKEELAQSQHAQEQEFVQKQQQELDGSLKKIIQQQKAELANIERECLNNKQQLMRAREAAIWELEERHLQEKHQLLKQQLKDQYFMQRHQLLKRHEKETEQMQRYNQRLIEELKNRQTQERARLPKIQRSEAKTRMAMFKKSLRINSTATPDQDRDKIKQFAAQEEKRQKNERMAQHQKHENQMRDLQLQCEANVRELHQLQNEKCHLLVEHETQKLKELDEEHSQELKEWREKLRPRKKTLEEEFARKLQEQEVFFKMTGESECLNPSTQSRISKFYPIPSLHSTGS
# [17] = molecular target: T23, endogenous kinases and other proteins enriched by Kinobeads from mixed cancer cell lysates (Homo sapiens, UniProt P51946); experiment: as above; type: binding; details: target CCNH
# T23 construct: endogenous in cells
# T23 sequence (P51946 whole entry): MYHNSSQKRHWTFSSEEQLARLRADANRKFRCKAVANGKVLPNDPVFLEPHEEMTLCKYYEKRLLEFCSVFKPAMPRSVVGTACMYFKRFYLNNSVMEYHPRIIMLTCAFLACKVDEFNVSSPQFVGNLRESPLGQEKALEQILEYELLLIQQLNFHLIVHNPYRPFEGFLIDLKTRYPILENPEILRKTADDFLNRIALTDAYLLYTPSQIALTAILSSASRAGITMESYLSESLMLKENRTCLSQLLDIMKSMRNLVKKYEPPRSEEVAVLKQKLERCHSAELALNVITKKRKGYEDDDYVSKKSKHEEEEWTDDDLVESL
structure (smiles),measurement,setting,value
C[C@]12O[C@H](C[C@]1(O)CO)n1c3ccccc3c3c4c(c5c6ccccc6n2c5c31)CNC4=O [Lestaurtinib],potency estimated from few doses,BUB1,854 nM
same,potency estimated from few doses,PRKAR2A,979 nM
same,potency estimated from few doses,ABL2,340 nM
same,potency estimated from few doses,PIP4K2C,86.5 nM
same,potency estimated from few doses,EPHA4,268 nM
COc1cc(Nc2ncc3c(C)nc(-c4cc5ccccc5[nH]4)n3n2)cc(OC)c1OC [GW869516X],IC50,"CK2alpha1 (CSNK2A1); Enzyme CK2alpha1, Highest Assay Concentration 1.00E-06 M, read-out: IC50",85.1 nM
same,IC50,"CK2alpha1 (CSNK2A1); recombinant kinase activity assay at KM (ATP), read-out: Activity IC50 CSNK2A1",85 nM
Cn1cc(-c2nc(N[C@@H]3CCCC[C@@H]3N)c(F)c3c2C(=O)NC3)cn1 [TAK659],EC50,[1],566 nM
same,Kd,[1]; read-out: apparent Kd,493 nM
same,EC50,[2],997 nM
same,Kd,[2]; read-out: apparent Kd,720 nM
same,EC50,[3],1010 nM
same,Kd,[3]; read-out: apparent Kd,895 nM
same,EC50,[4],260 nM
same,Kd,[4]; read-out: apparent Kd,140 nM
same,EC50,[5],589 nM
same,Kd,[5]; read-out: apparent Kd,529 nM
same,EC50,[6],564 nM
same,Kd,[6]; read-out: apparent Kd,308 nM
same,EC50,[7],595 nM
same,Kd,[7]; read-out: apparent Kd,459 nM
same,EC50,[8],810 nM
same,Kd,[8]; read-out: apparent Kd,617 nM
same,EC50,[9],1410 nM
same,Kd,[9]; read-out: apparent Kd,1180 nM
same,EC50,[10],161 nM
same,Kd,[10]; read-out: apparent Kd,86.7 nM
same,EC50,[11],837 nM
same,Kd,[11]; read-out: apparent Kd,762 nM
same,EC50,[12],639 nM
same,Kd,[12]; read-out: apparent Kd,639 nM
same,Kd,[13],2960 nM
same,EC50,[14],537 nM
same,Kd,[14]; read-out: apparent Kd,456 nM
same,EC50,[15],725 nM
same,Kd,[15]; read-out: apparent Kd,725 nM
same,EC50,[16],516 nM
same,Kd,[16]; read-out: apparent Kd,516 nM
same,EC50,[17],1730 nM
same,Kd,[17]; read-out: apparent Kd,1580 nM
